# Test results from the CombiSolv-Exp solvation set (Vermeire and Green 2021).
# Assay: solvent given as SMILES
smiles,measurement,setting,value
ClCCCl,"solvation free energy, 298 K",in Brc1cccc2ccccc12,-4.18 kcal/mol
same,"solvation free energy, 298 K",in C1CCOC1,-5.01 kcal/mol
same,"solvation free energy, 298 K",in C1COCCO1,-4.98 kcal/mol
same,"solvation free energy, 298 K",in CC(=O)CC(C)C,-4.68 kcal/mol
same,"solvation free energy, 298 K",in CC(=O)N(C)C,-5.01 kcal/mol
same,"solvation free energy, 298 K",in CC(=O)OCc1ccccc1,-4.59 kcal/mol
same,"solvation free energy, 298 K",in CC(C)OC(C)C,-3.88 kcal/mol
same,"solvation free energy, 298 K",in CCC(C)=O,-4.79 kcal/mol
same,"solvation free energy, 298 K",in CCCCCC,-3.75 kcal/mol
same,"solvation free energy, 298 K",in CCCCCCC,-3.7 kcal/mol
same,"solvation free energy, 298 K",in CCCCCCCC,-3.7 kcal/mol
same,"solvation free energy, 298 K",in CCCCCCCCCCCCCC,-3.49 kcal/mol
same,"solvation free energy, 298 K",in CCCCCCCCCCCCCCCC,-3.52 kcal/mol
same,"solvation free energy, 298 K",in CCCCCCCCN(CCCCCCCC)CCCCCCCC,-3.6 kcal/mol
same,"solvation free energy, 298 K",in CCCCCCCCO,-3.78 kcal/mol
same,"solvation free energy, 298 K",in CCCCCN(CCCCC)CCCCC,-3.76 kcal/mol
same,"solvation free energy, 298 K",in CCCCCl,-4.42 kcal/mol
same,"solvation free energy, 298 K",in CCCCN(C=O)CCCC,-4.62 kcal/mol
same,"solvation free energy, 298 K",in CCCCN(CCCC)CCCC,-3.65 kcal/mol
same,"solvation free energy, 298 K",in CCCCO,-3.98 kcal/mol
same,"solvation free energy, 298 K",in CCCCOCCCC,-4.16 kcal/mol
same,"solvation free energy, 298 K",in CCO,-4.03 kcal/mol
same,"solvation free energy, 298 K",in CCOC(C)=O,-4.72 kcal/mol
same,"solvation free energy, 298 K",in CCOCC,-4.45 kcal/mol
same,"solvation free energy, 298 K",in CNC(C)=O,-4.45 kcal/mol
same,"solvation free energy, 298 K",in COC(=O)OC,-4.73 kcal/mol
same,"solvation free energy, 298 K",in COC(C)(C)C,-4.35 kcal/mol
same,"solvation free energy, 298 K",in Cc1ccc(C)cc1,-4.41 kcal/mol
same,"solvation free energy, 298 K",in Cc1cccc(C)c1,-4.45 kcal/mol
same,"solvation free energy, 298 K",in Cc1ccccc1C,-4.42 kcal/mol
same,"solvation free energy, 298 K",in ClC(Cl)(Cl)Cl,-4.3 kcal/mol
same,"solvation free energy, 298 K",in ClC(Cl)Cl,-4.69 kcal/mol
same,"solvation free energy, 298 K",in O,-1.79 kcal/mol
same,"solvation free energy, 298 K",in [2H]O[2H],-1.89 kcal/mol
same,"solvation free energy, 298 K",in c1ccc2ncccc2c1,-4.54 kcal/mol
same,"solvation free energy, 298 K",in c1ccccc1,-4.68 kcal/mol
O=C(O)c1ccc([N+](=O)[O-])cc1,"solvation free energy, 298 K",in C1CCOC1,-13.3 kcal/mol
same,"solvation free energy, 298 K",in C1COCCO1,-13.1 kcal/mol
same,"solvation free energy, 298 K",in CC(C)(C)O,-12.4 kcal/mol
same,"solvation free energy, 298 K",in CC(C)CCO,-11.9 kcal/mol
same,"solvation free energy, 298 K",in CC(C)CO,-11.9 kcal/mol
same,"solvation free energy, 298 K",in CC(C)O,-12.2 kcal/mol
same,"solvation free energy, 298 K",in CC(C)OC(C)C,-11.3 kcal/mol
same,"solvation free energy, 298 K",in CC(C)OCCO,-12.6 kcal/mol
same,"solvation free energy, 298 K",in CC(O)COC(C)(C)C,-12.6 kcal/mol
same,"solvation free energy, 298 K",in CCC(C)O,-12.1 kcal/mol
same,"solvation free energy, 298 K",in CCCC(C)O,-12 kcal/mol
same,"solvation free energy, 298 K",in CCCCCCCCCCO,-11.7 kcal/mol
same,"solvation free energy, 298 K",in CCCCCCCCO,-11.8 kcal/mol
same,"solvation free energy, 298 K",in CCCCCCCO,-11.9 kcal/mol
same,"solvation free energy, 298 K",in CCCCCCO,-12 kcal/mol
same,"solvation free energy, 298 K",in CCCCCO,-12 kcal/mol
same,"solvation free energy, 298 K",in CCCCCOC(C)=O,-11.7 kcal/mol
same,"solvation free energy, 298 K",in CCCCO,-12 kcal/mol
same,"solvation free energy, 298 K",in CCCCOC(C)=O,-11.9 kcal/mol
same,"solvation free energy, 298 K",in CCCCOCCO,-12.5 kcal/mol
same,"solvation free energy, 298 K",in CCCO,-12.2 kcal/mol
same,"solvation free energy, 298 K",in CCCOCCO,-12.6 kcal/mol
same,"solvation free energy, 298 K",in CCO,-12.3 kcal/mol
same,"solvation free energy, 298 K",in CCOC(C)=O,-12.2 kcal/mol
same,"solvation free energy, 298 K",in CCOCC,-12.2 kcal/mol
same,"solvation free energy, 298 K",in CCOCCO,-12.8 kcal/mol
same,"solvation free energy, 298 K",in CN(C)C=O,-12.8 kcal/mol
same,"solvation free energy, 298 K",in CO,-12.5 kcal/mol
same,"solvation free energy, 298 K",in COC(C)=O,-12.4 kcal/mol
same,"solvation free energy, 298 K",in COC(C)CCO,-12.6 kcal/mol
same,"solvation free energy, 298 K",in O,-9.44 kcal/mol
CCCN(C)N=O,"solvation free energy, 298 K",in CC(C)CC(C)(C)C,-4.99 kcal/mol
CCCC1CCCC1,"solvation free energy, 298 K",in O,2.13 kcal/mol
CC1=CC2C(=C(C)CCC2C(C)C)CC1 (stereo not given),"solvation free energy, 298 K",in O,-0.4 kcal/mol
CC1=CCC(C(C)C)c2cc(C)ccc21 (stereo not given),"solvation free energy, 298 K",in O,-1.12 kcal/mol
CCC(C)C,"solvation free energy, 298 K",in C1=Cc2ccccc2C1,-2.54 kcal/mol
same,"solvation free energy, 298 K",in C=CCCCCCCCCCCCCCC,-2.66 kcal/mol
same,"solvation free energy, 298 K",in CC#N,-1.9 kcal/mol
same,"solvation free energy, 298 K",in CC(=O)N(C)C,-1.98 kcal/mol
same,"solvation free energy, 298 K",in CC(C)(C)O,-2.56 kcal/mol
same,"solvation free energy, 298 K",in CCCCCCCCCCCCCCCC,-2.76 kcal/mol
same,"solvation free energy, 298 K",in CCCCCCCCCOC(=O)c1ccccc1C(=O)OCCCCCCCCC,-2.36 kcal/mol
same,"solvation free energy, 298 K",in CCNC(C)=O,-2.22 kcal/mol
same,"solvation free energy, 298 K",in CN1CCCC1=O,-1.8 kcal/mol
same,"solvation free energy, 298 K",in CN1CCCCC1=O,-2.01 kcal/mol
same,"solvation free energy, 298 K",in CN(C)C=O,-1.9 kcal/mol
same,"solvation free energy, 298 K",in CN(C)P(=O)(N(C)C)N(C)C,-2 kcal/mol
same,"solvation free energy, 298 K",in CNC(C)=O,-2.03 kcal/mol
same,"solvation free energy, 298 K",in CNC=O,-1.57 kcal/mol
same,"solvation free energy, 298 K",in ClC(Cl)C(Cl)Cl,-2.38 kcal/mol
same,"solvation free energy, 298 K",in Clc1cccc2ccccc12,-2.24 kcal/mol
same,"solvation free energy, 298 K",in Ic1ccccc1,-2.37 kcal/mol
same,"solvation free energy, 298 K",in N#CCCCCC#N,-1.06 kcal/mol
same,"solvation free energy, 298 K",in N#CCc1ccccc1,-1.78 kcal/mol
same,"solvation free energy, 298 K",in N#Cc1ccccc1,-2.21 kcal/mol
same,"solvation free energy, 298 K",in O,2.39 kcal/mol
same,"solvation free energy, 298 K",in O=C1CCCCC1,-2.58 kcal/mol
C=C(C)C1CCC2(C)CCC=C(C)C2C1 (stereo not given),"solvation free energy, 298 K",in O,-0.16 kcal/mol
CCCCCCCC(C)O (stereo not given),"solvation free energy, 298 K",in O,-3.57 kcal/mol
O=C(c1ccccc1)N(O)c1cccc(Cl)c1,"solvation free energy, 298 K",in O,-10.9 kcal/mol
Cn1c(=O)c2c(ncn2C)n(C)c1=O,"solvation free energy, 298 K",in O,-12.6 kcal/mol
O=c1[nH]c(=O)[nH]c(=O)[nH]1,"solvation free energy, 298 K",in O,-18.1 kcal/mol
CCCCCCCCCOC(=O)c1ccccc1C(=O)OCCCC,"solvation free energy, 298 K",in O,-6.67 kcal/mol
C#CCCCCCCC,"solvation free energy, 298 K",in O,0.74 kcal/mol
O=C(OC1CCCCCC1)c1ccccc1C(=O)OC1CCCCCC1,"solvation free energy, 298 K",in O,-8.87 kcal/mol
CN1C(=O)C(O)N=C(c2ccccc2)c2cc(Cl)ccc21 (stereo not given),"solvation free energy, 298 K",in CC(C)O,-18.1 kcal/mol
same,"solvation free energy, 298 K",in CCCCCCO,-18.6 kcal/mol
same,"solvation free energy, 298 K",in CCCCCO,-18.5 kcal/mol
same,"solvation free energy, 298 K",in CCCCO,-18.5 kcal/mol
same,"solvation free energy, 298 K",in CCCO,-18.5 kcal/mol
same,"solvation free energy, 298 K",in CCO,-18.6 kcal/mol
same,"solvation free energy, 298 K",in CN(C)C=O,-20 kcal/mol
same,"solvation free energy, 298 K",in CO,-19.1 kcal/mol
same,"solvation free energy, 298 K",in O,-15.2 kcal/mol
same,"solvation free energy, 298 K",in O=C1CCCCC1,-19.6 kcal/mol
CCCC(=O)CCC,"solvation free energy, 298 K",in CCCCOCCCC,-5.6 kcal/mol
same,"solvation free energy, 298 K",in CO,-5.77 kcal/mol
same,"solvation free energy, 298 K",in O,-2.92 kcal/mol
C=CCC(C)(C)C,"solvation free energy, 298 K",in C=CCCCCCCCCCCCCCC,-3.59 kcal/mol
same,"solvation free energy, 298 K",in O,1.53 kcal/mol
CCC(C)(O)CC,"solvation free energy, 298 K",in O,-4.2 kcal/mol
Clc1cc(Cl)c2c(c1Cl)Oc1ccccc1O2,"solvation free energy, 298 K",in O,-4.05 kcal/mol
CC(C)C#N,"solvation free energy, 298 K",in CCCCCCCCCCCCCCCC,-3.08 kcal/mol
same,"solvation free energy, 298 K",in CCCCCCCCO,-3.92 kcal/mol
same,"solvation free energy, 298 K",in O,-3.31 kcal/mol
same,"solvation free energy, 298 K",in [2H]O[2H],-3.29 kcal/mol
C=CC1(C)CCC(=C(C)C)CC1C(=C)C (stereo not given),"solvation free energy, 298 K",in O,-0.35 kcal/mol
CC(C)C(C)(C)C,"solvation free energy, 298 K",in C=CCCCCCCCCCCCCCC,-3.77 kcal/mol
same,"solvation free energy, 298 K",in CN1CCCC1=O,-2.78 kcal/mol
same,"solvation free energy, 298 K",in O,2.62 kcal/mol
Clc1ccc(Br)cc1,"solvation free energy, 298 K",in CC(C)CO,-6.51 kcal/mol
same,"solvation free energy, 298 K",in CCCCOCCCC,-7.08 kcal/mol
same,"solvation free energy, 298 K",in COC(C)(C)C,-7.27 kcal/mol
same,"solvation free energy, 298 K",in O,-1.61 kcal/mol
